According to patent US10238761B1, “Method and an integrated device for an area decontamination process” (NANOMIST SYSTEMS, LLC, priority 2013, dated 2019):
Like-named read-outs stand apart in the source and are kept apart here.

Tested on: G. Stearothermophilus
Procedure: Tests were conducted in a 36 m^3 room without carpet (i.e., with tiled floor) and also in a 110 m^3 room with wall-to-wall carpet and configured to simulate a larger room with an attached bathroom with a door opening. Biological indicator (BI) test disks inoculated with 4-log, 5-log and 6-log populations of G. Stearothermophilus prepared by Mesa Labs were used.
BI test disks were placed at various locations within the room and doors and windows and other ventilation to the room was closed. Room temperature was not intentionally controlled, but was maintained at between about 22° C. and 26° C. The test area was pre-conditioned to a relative humidity of about 50%. A predetermined amount of biocide, a 35% hydrogen peroxide vapor, was rapidly injected into the room, with the rate of injection being about 50 g per minute or producing about 17.5 g of HP vapor per minute. The “inactivation time” or time from the initiation of the biocide injection through the residence time was a total of about 10 minutes. The room was then aerated until the concentration of biocide dropped to about 1 ppm. The overall cycle time was then calculated as the time for biocide injection, biocide contact or inactivation time, and the aeration time.

Structure (SMILES): OO [35% HP solution, hydrogen peroxide]
- Kill Efficiency (Test 3: 36 m^3 room, injected mass 2.4 g/m^3, HP mass 86.4 g, injection time 12.7 min, injection rate 6.8 g/min (0.19 g/min/m3) of HP): 5-log
- Kill Efficiency (Test 4: 36 m^3 room, injected mass 2.4 g/m^3, HP mass 86.4 g, injection time 8.3 min, injection rate 10.4 g/min (0.29 g/min/m3) of HP): 6-log
- Kill Efficiency (Test 7: 36 m^3 room, injected mass 2 g/m^3, HP mass 72 g, injection time 12 min, injection rate 6.0 g/min (0.17 g/min/m3) of HP): 5-log
- Kill Efficiency (Test 8: 36 m^3 room, injected mass 2 g/m^3, HP mass 72 g, injection time 6.5 min, injection rate 11.1 g/min (0.31 g/min/m3) of HP): 6-log
- Kill Efficiency (Test 9: 36 m^3 room, injected mass 2 g/m^3, HP mass 72.7 g, injection time 9.6 min, injection rate 7.6 g/min (0.21 g/min/m3) of HP): 5-log
- Kill Efficiency (Test 10: 36 m^3 room, injected mass 2 g/m^3, HP mass 73.1 g, injection time 6.5 min, injection rate 11.2 g/min (0.31 g/min/m3) of HP): 6-log
- Kill Efficiency (Test 11: 36 m^3 room, injected mass 2.2 g/m^3, HP mass 79.6 g, injection time 13 min, injection rate 6.1 g/min (0.17 g/min/m3) of HP): 5-log
- Kill Efficiency (Test 12: 36 m^3 room, injected mass 2.1 g/m^3, HP mass 74.9 g, injection time 4.3 min, injection rate 17.4 g/min (0.48 g/min/m3) of HP): 6-log
- Kill Efficiency (Test A: 36-m^3 room, tile, injected mass 0.6 g/m^3, HP mass 22 g, injection rate 11.4 g/min, injection time 1.8 min, residence time 8.2 min): 4-log
- Kill Efficiency (Test B: 36-m^3 room, tile, injected mass 0.7 g/m^3, HP mass 26 g, injection rate 11.0 g/min, injection time 2.4 min, residence time 7.6 min): 5-log
- Kill Efficiency (Test C: 36-m^3 room, tile, injected mass 1.7 g/m^3, HP mass 59 g, injection rate 12.3 g/min, injection time 4.8 min, residence time 5.2 min): 6-log
- Kill Efficiency (Test D: 100-m^3 room, carpet, second doorway with non-line-of-sight BI, injected mass 0.8 g/m^3, HP mass 91 g, injection rate 13.0 g/min, injection time 7.0 min, residence time 3.0 min): 5-log
- Kill Efficiency (Test E: 100-m^3 room, carpet, second doorway with non-line-of-sight BI, injected mass 1.8 g/m^3, HP mass 201 g, injection rate 21.1 g/min, injection time 9.5 min, residence time 0.5 min): 6-log
